Results taken from patent US9296734B2 (AMGEN INC., priority 2013, dated 2016).
Read-outs that look alike come from different tables or passages of the source. Values belong to the compound of their own block, whether it stands above or below them.

How the values were obtained:
[1] = target: Beta Secretase enzyme (BACE) (Homo sapiens (Human), UniProt P56817); test: In vitro enzymatic BACE FRET assay; format: biochemical; details: read-out: BACE 1 FRET assay IC50
Summary of the method: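 Reactions ran in 0.05 M acetate pH 4.2 with 10% DMSO final and 100 uM genapol. They were started with 50 nM peptide FRET substrate (fluorophore and quencher flanking the BACE cleavage site) and incubated one hour. Tris addition raised the pH to neutral to stop the reaction before fluorescence reading.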

Cathepsin D (Cat D) = Cathepsin D (Cat D) (Homo sapiens (Human), UniProt P07339); test: In vitro enzymatic Cathepsin D (Cat D) FRET assay; format: biochemical; details: read-out: CatD IC50
Summary of the method: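 CHO-expressed recombinant Cat D cleaves a fluorophore/quencher FRET peptide (20 nM) in 0.05 M citrate pH 3.5, 5 mM CHAPS, 10% DMSO final, over 1 h. Tris addition neutralizes pH to stop the reaction; fluorescence read at excitation 500 nm, emission 580 nm.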

[2] = tested on: Aβ40 in conditioned medium of cells stably expressing Amyloid Precursor Protein (APP); test: In vitro BACE cell-based assay (Aβ40 sandwich ELISA); details: Homo sapiens
Summary of the method: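 Secreted Aβ40 was quantified by sandwich ELISA (pAb40 capture, biotinylated 6E10 detection, Europium time-resolved fluorescence). IC50 derived from percent inhibition versus concentration.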

[3] = average IC50, BACE enzyme assay
[4] = average IC50, cathepsin D enzyme assay
[5] = HEK293, average IC50, HEK cell assay, read-out: HEK cell assay IC50
[6] = HEK293, HEK cells, average, read-out: HEK cell assay IC50
[7] = HEK293, read-out: HEK cell assay IC50

Cathepsin D (Cat D), sequence (P07339 65-412, species assumed): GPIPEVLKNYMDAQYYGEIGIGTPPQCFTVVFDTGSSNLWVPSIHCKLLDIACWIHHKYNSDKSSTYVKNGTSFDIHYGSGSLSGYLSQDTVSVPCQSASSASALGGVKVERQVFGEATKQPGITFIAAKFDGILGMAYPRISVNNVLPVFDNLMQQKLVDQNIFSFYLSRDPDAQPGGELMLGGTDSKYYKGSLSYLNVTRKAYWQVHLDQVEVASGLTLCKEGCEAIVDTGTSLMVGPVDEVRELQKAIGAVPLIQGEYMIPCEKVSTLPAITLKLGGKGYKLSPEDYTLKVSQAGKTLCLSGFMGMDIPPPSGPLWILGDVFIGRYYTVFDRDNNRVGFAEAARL
Beta Secretase enzyme (BACE), sequence (P56817 46-501): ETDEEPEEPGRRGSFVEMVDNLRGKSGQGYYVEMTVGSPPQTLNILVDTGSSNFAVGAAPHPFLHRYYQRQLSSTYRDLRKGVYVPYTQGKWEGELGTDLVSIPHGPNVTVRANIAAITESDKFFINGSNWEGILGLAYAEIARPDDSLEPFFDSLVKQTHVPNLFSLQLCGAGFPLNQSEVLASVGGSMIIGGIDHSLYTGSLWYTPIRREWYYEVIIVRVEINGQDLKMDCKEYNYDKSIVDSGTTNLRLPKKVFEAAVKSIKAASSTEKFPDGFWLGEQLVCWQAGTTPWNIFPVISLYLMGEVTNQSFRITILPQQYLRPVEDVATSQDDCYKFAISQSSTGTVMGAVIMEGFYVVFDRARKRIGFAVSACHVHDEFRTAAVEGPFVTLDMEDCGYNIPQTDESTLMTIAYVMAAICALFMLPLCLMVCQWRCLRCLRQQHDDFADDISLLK

Structure (SMILES): Cc1cc(Cl)cnc1C(=O)Nc1cc(F)c(F)c([C@]2(C)C[C@@H](C(F)(F)F)OC(N)=N2)c1 [Example 170, N-(3-((4S,6S)-2-amino-4-methyl-6-(trifluoromethyl)-5,6-dihydro-4H-1,3-oxazin-4-yl)-4,5-difluorophenyl)-5-chloro-3-methylpicolinamide]
IC50 [1, 3]: 0.0095 µM
IC50 (Cathepsin D (Cat D); [4]): 733 µM
IC50 [2, 5]: 0.014 µM

Structure (SMILES): C[C@@]1(c2cc(NC(=O)c3ncc(Cl)cc3Cl)cc(F)c2F)C[C@@H](C(F)(F)F)OC(N)=N1 [Example 172, N-(3-((4S,6S)-2-amino-4-methyl-6-(trifluoromethyl)-5,6-dihydro-4H-1,3-oxazin-4-yl)-4,5-difluorophenyl)-3,5-dichloropicolinamide]
IC50 [1, 3]: 0.019 µM
IC50 (Cathepsin D (Cat D); [4]): 394 µM
IC50 [2, 5]: 0.019 µM

Structure (SMILES): COc1cnc(C(=O)Nc2cc(F)c(F)c([C@]3(C)C[C@@H](C(F)(F)F)OC(N)=N3)c2)c(C)n1 [Example 173, N-(3-((4S,6S)-2-amino-4-methyl-6-(trifluoromethyl)-5,6-dihydro-4H-1,3-oxazin-4-yl)-4,5-difluorophenyl)-5-methoxy-3-methylpyrazine-2-carboxamide]
IC50 ([1]; average): 0.118 µM
IC50 (Cathepsin D (Cat D); average): > 400 µM
IC50 [2, 6]: 0.085 µM

Structure (SMILES): C[C@@]1(c2cc(NC(=O)c3ccc(Br)cn3)cc(F)c2F)C[C@@H](C(F)(F)F)OC(N)=N1 [Example 175, N-(3-((4S,6S)-2-amino-4-methyl-6-(trifluoromethyl)-5,6-dihydro-4H-1,3-oxazin-4-yl)-4,5-difluorophenyl)-5-bromopicolinamide]
IC50 ([1]; average): 0.022 µM
IC50 (Cathepsin D (Cat D); average): 424 µM
IC50 [2, 6]: 0.0066 µM

Structure (SMILES): C[C@@]1(c2cc(Nc3nccc4cc(Cl)cnc34)cc(F)c2F)C[C@@H](C(F)(F)F)OC(N)=N1 [Example 176, (4S,6S)-4-(5-((3-chloro-1,7-naphthyridin-8-yl)amino)-2,3-difluorophenyl)-4-methyl-6-(trifluoromethyl)-5,6-dihydro-4H-1,3-oxazin-2-amine]
IC50 [1, 3]: 0.021 µM
IC50 (Cathepsin D (Cat D); [4]): 104 µM
IC50 [2, 5]: 0.102 µM

Structure (SMILES): C[C@@]1(c2cc(Nc3ncc(F)c4cc(C#N)cnc34)cc(F)c2F)C[C@@H](C(F)(F)F)OC(N)=N1 [Example 177, 8-((3-((4S,6S)-2-amino-4-methyl-6-(trifluoromethyl)-5,6-dihydro-4H-1,3-oxazin-4-yl)-4,5-difluorophenyl)amino)-5-fluoro-1,7-naphthyridine-3-carbonitrile]
IC50 [1, 3]: 0.03 µM
IC50 (Cathepsin D (Cat D); [4]): > 4.94 µM
IC50 [2, 5]: 0.275 µM

Structure (SMILES): C[C@@]1(c2cc(Nc3nccc4cc(C#N)cnc34)cc(F)c2F)C[C@@H](C(F)(F)F)OC(N)=N1 [Example 180, 8-((3-((4S,6S)-2-amino-4-methyl-6-(trifluoromethyl)-5,6-dihydro-4H-1,3-oxazin-4-yl)-4,5-difluorophenyl)amino)-1,7-naphthyridine-3-carbonitrile]
IC50 [1, 3]: 0.014 µM
IC50 (Cathepsin D (Cat D); [4]): > 400 µM
IC50 [2, 5]: 0.036 µM

Structure (SMILES): NC1=N[C@](CF)(c2cc(C(=O)NC3CC3)ccc2F)C[C@@H](C(F)(F)F)O1 [Example 182, 3-((4S,6S)-2-amino-4-(fluoromethyl)-6-(trifluoromethyl)-5,6-dihydro-4H-1,3-oxazin-4-yl)-N-cyclopropyl-4-fluorobenzamide]
IC50 [1, 3]: 11.4 µM
IC50 (Cathepsin D (Cat D); [4]): 3490 µM
IC50 [2, 5]: > 15.6 µM

Structure (SMILES): C[C@@]1(c2cc(NC(=O)c3cnc(OCC(F)(F)F)cn3)cc(F)c2F)C[C@@H](C(F)(F)F)OC(N)=N1 [Example 186, N-(3-((4S,6S)-2-amino-4-methyl-6-(trifluoromethyl)-5,6-dihydro-4H-1,3-oxazin-4-yl)-4,5-difluorophenyl)-5-(2,2,2-trifluoroethoxy)pyrazine-2-carboxamide]
IC50 ([1]; average): 0.021 µM
IC50 (Cathepsin D (Cat D); average): > 400 µM
IC50 [2, 6]: 0.015 µM

Structure (SMILES): C[C@@]1(c2cc(NC(=O)c3ncc(C(F)(F)F)cc3Cl)cc(F)c2F)C[C@@H](C(F)(F)F)OC(N)=N1 [Example 187, N-(3-((4S,6S)-2-amino-4-methyl-6-(trifluoromethyl)-5,6-dihydro-4H-1,3-oxazin-4-yl)-4,5-difluorophenyl)-3-chloro-5-(trifluoromethyl)picolinamide]
IC50 ([1]; average): 0.075 µM
IC50 (Cathepsin D (Cat D); average): > 400 µM
IC50 [2, 6]: 0.015 µM

Structure (SMILES): CC#CCOc1ccc(C(=O)Nc2cc(F)c(F)c([C@]3(C)C[C@@H](C(F)(F)F)OC(N)=N3)c2)nc1 [Example 189, N-(3-((4S,6S)-2-amino-4-methyl-6-(trifluoromethyl)-5,6-dihydro-4H-1,3-oxazin-4-yl)-4,5-difluorophenyl)-5-(but-2-yn-1-yloxy)picolinamide]
IC50 ([1]; average): 0.003 µM
IC50 (Cathepsin D (Cat D); average): 784 µM
IC50 [2, 6]: 0.003 µM

Structure (SMILES): C#CCOc1cnc(C(=O)Nc2cc(F)c(F)c([C@]3(C)C[C@@H](C(F)(F)F)OC(N)=N3)c2)cn1 [Example 190, N-(3-((4S,6S)-2-amino-4-methyl-6-(trifluoromethyl)-5,6-dihydro-4H-1,3-oxazin-4-yl)-4,5-difluorophenyl)-5-(prop-2-yn-1-yloxy)pyrazine-2-carboxamide]
IC50 [1, 3]: > 40 µM
IC50 ([1]; average): 0.002 µM
IC50 (Cathepsin D (Cat D); [4]): > 400 µM
IC50 (Cathepsin D (Cat D); average): 505 µM
IC50 [2, 6]: 0.002 µM
IC50 [2, 5]: > 15.6 µM

Structure (SMILES): C[C@@]1(c2cc(NC(=O)c3cnc(OCc4ncco4)cn3)cc(F)c2F)C[C@@H](C(F)(F)F)OC(N)=N1 [Example 204, N-(3-((4S,6S)-2-amino-4-methyl-6-(trifluoromethyl)-5,6-dihydro-4H-1,3-oxazin-4-yl)-4,5-difluorophenyl)-5-(oxazol-2-ylmethoxy)pyrazine-2-carboxamide]
IC50 ([1]; average): 0.006 µM
IC50 (Cathepsin D (Cat D); average): 1040 µM
IC50 [2, 7]: 0.003 µM

Structure (SMILES): COc1cnc(C(=O)Nc2cc(Cl)c(F)c([C@]3(C)C[C@@H](C(F)(F)F)OC(N)=N3)c2)cn1 [Example 208, N-(3-((4S,6S)-2-amino-4-methyl-6-(trifluoromethyl)-5,6-dihydro-4H-1,3-oxazin-4-yl)-5-chloro-4-fluorophenyl)-5-methoxypyrazine-2-carboxamide]
IC50 ([1]; average): 0.012 µM
IC50 (Cathepsin D (Cat D); average): 394 µM
IC50 [2, 7]: 0.003 µM

Next, values leading:

IC50 ([1]; average): 0.097 µM
IC50 (Cathepsin D (Cat D); average): 511 µM
IC50 [2, 6]: 0.549 µM
Structure (SMILES): Cc1cc(OCC2CC2)cnc1C(=O)Nc1cc(F)c(F)c([C@]2(C)C[C@@H](C(F)(F)F)OC(N)=N2)c1 [Example 191, N-(3-((4S,6S)-2-amino-4-methyl-6-(trifluoromethyl)-5,6-dihydro-4H-1,3-oxazin-4-yl)-4,5-difluorophenyl)-5-(cyclopropylmethoxy)-3-methylpicolinamide]

IC50 ([1]; average IC50): 0.0461 µM
IC50 ([1]; average): 0.075 µM
IC50 (Cathepsin D (Cat D); average IC50): > 400 µM
IC50 (Cathepsin D (Cat D); average): 1270 µM
IC50 [2, 6]: 0.018 µM
IC50 ([2]; HEK293, average IC50, HEK cells, read-out: HEK cell assay IC50): 0.0213 µM
Structure (SMILES): C[C@@]1(c2cc(NC(=O)c3cnc(C(F)F)cn3)cc(F)c2F)C[C@@H](C(F)(F)F)OC(N)=N1 [Example 193, N-(3-((4S,6S)-2-amino-4-methyl-6-(trifluoromethyl)-5,6-dihydro-4H-1,3-oxazin-4-yl)-4,5-difluorophenyl)-5-(difluoromethyl)pyrazine-2-carboxamide]

IC50 ([1]; average): 0.071 µM
IC50 (Cathepsin D (Cat D); average): > 400 µM
IC50 [2, 6]: 0.011 µM
Structure (SMILES): COc1cc(Cl)cnc1C(=O)Nc1cc(F)c(F)c([C@]2(C)C[C@@H](C(F)(F)F)OC(N)=N2)c1 [Example 195, N-(3-((4S,6S)-2-amino-4-methyl-6-(trifluoromethyl)-5,6-dihydro-4H-1,3-oxazin-4-yl)-4,5-difluorophenyl)-5-chloro-3-methoxypicolinamide]

IC50 ([1]; average): 0.011 µM
IC50 (Cathepsin D (Cat D); average): 628 µM
IC50 [2, 6]: 0.007 µM
Structure (SMILES): C[C@@]1(c2cc(NC(=O)c3nn(C(F)F)cc3Cl)cc(F)c2F)C[C@@H](C(F)(F)F)OC(N)=N1 [Example 196, N-(3-((4S,6S)-2-amino-4-methyl-6-(trifluoromethyl)-5,6-dihydro-4H-1,3-oxazin-4-yl)-4,5-difluorophenyl)-4-chloro-1-(difluoromethyl)-1H-pyrazole-3-carboxamide]

IC50 ([1]; average): 0.016 µM
IC50 (Cathepsin D (Cat D); average): 1710 µM
IC50 [2, 6]: 0.013 µM
Structure (SMILES): COCc1cc(Cl)cnc1C(=O)Nc1cc(F)c(F)c([C@]2(C)C[C@@H](C(F)(F)F)OC(N)=N2)c1 [Example 199, N-(3-((4S,6S)-2-amino-4-methyl-6-(trifluoromethyl)-5,6-dihydro-4H-1,3-oxazin-4-yl)-4,5-difluorophenyl)-5-chloro-3-(methoxymethyl)picolinamide]

IC50 ([1]; average): 0.039 µM
IC50 (Cathepsin D (Cat D); average): > 400 µM
IC50 [2, 6]: 0.01 µM
Structure (SMILES): C[C@@]1(c2cc(NC(=O)c3ncc(C#N)cc3F)cc(F)c2F)C[C@@H](C(F)(F)F)OC(N)=N1 [Example 205, N-(3-((4S,6S)-2-amino-4-methyl-6-(trifluoromethyl)-5,6-dihydro-4H-1,3-oxazin-4-yl)-4,5-difluorophenyl)-5-cyano-3-fluoropicolinamide]

IC50 ([1]; average): 0.023 µM
IC50 (Cathepsin D (Cat D); average): 488 µM
IC50 [2, 6]: 0.012 µM
Structure (SMILES): C[C@@]1(c2cc(NC(=O)c3ccc(C#N)cn3)cc(Cl)c2F)C[C@@H](C(F)(F)F)OC(N)=N1 [Example 206, N-(3-((4S,6S)-2-amino-4-methyl-6-(trifluoromethyl)-5,6-dihydro-4H-1,3-oxazin-4-yl)-5-chloro-4-fluorophenyl)-5-cyanopicolinamide]
